Assay results published in ChEMBL document CHEMBL1128489, “Novel hexakis(areneisonitrile)technetium(I) complexes as radioligands targeted to the multidrug resistance P-glycoprotein” (J Med Chem, 1995).

How the values were obtained:
V79 [1] = assay: Net accumulation of the [99mTc]Isonitrile complex was measured in 77A cell lines in the presence of Verapamil.; type: functional, cell-based
V79 [2] = assay: Verapamil index represents the ratio of net uptake in the presense of verapamil over control in 77A cell lines.; type: functional, cell-based
[3] = Ratio of bioavailability in rat blood and rat brain.; type: functional, organism-based
[4] = Ratio of bioavailability in rat heart and rat blood.; type: functional, organism-based
[5] = Ratio of bioavailability in rat adrenal and rat blood.; type: functional, organism-based
V79 [6] = assay: Verapamil index represents the ratio of net uptake in the presense of verapamil over control in V79 cell lines.; type: functional, cell-based; conditions: Cricetulus griseus
V79 [7] = assay: Net accumulation of the [99mTc]Isonitrile complex was measured in V79 cell lines in the presence of Verapamil.; type: functional, cell-based; conditions: Cricetulus griseus
Rattus norvegicus [8] = assay: Biodistribution values represent the mean % id/organ for paired rats 30 min post intravenous injection complex in Spleen; type: ADME, organism-based; conditions: in vivo, 0.5 h
Rattus norvegicus [9] = assay: Biodistribution values represent the mean % id/organ for paired rats 30 min post intravenous injection complex in Adrenal; type: ADME, organism-based; conditions: in vivo, 0.5 h
Rattus norvegicus [10] = assay: Biodistribution values represent the mean % id/organ for paired rats 30 min post intravenous injection complex in Blood; type: ADME, organism-based; conditions: in vivo, 0.5 h
Rattus norvegicus [11] = assay: Biodistribution values represent the mean % id/organ for paired rats 30 min post intravenous injection complex in Bone; type: ADME, organism-based, Bone element; conditions: in vivo, 0.5 h
Rattus norvegicus [12] = assay: Biodistribution values represent the mean % id/organ for paired rats 30 min post intravenous injection complex in Brain; type: ADME, organism-based; conditions: in vivo, 0.5 h
Rattus norvegicus [13] = assay: Biodistribution values represent the mean % id/organ for paired rats 30 min post intravenous injection complex in Fat; type: ADME, organism-based; conditions: in vivo, 0.5 h
Rattus norvegicus [14] = assay: Biodistribution values represent the mean % id/organ for paired rats 30 min post intravenous injection complex in GI; type: ADME, organism-based; conditions: in vivo, 0.5 h
Rattus norvegicus [15] = assay: Biodistribution values represent the mean % id/organ for paired rats 30 min post intravenous injection complex in Heart; type: ADME, organism-based; conditions: in vivo, 0.5 h
Rattus norvegicus [16] = assay: Biodistribution values represent the mean % id/organ for paired rats 30 min post intravenous injection complex in Kidney; type: ADME, organism-based; conditions: in vivo, 0.5 h
Rattus norvegicus [17] = assay: Biodistribution values represent the mean % id/organ for paired rats 30 min post intravenous injection complex in Skin; type: ADME, organism-based; conditions: in vivo, 0.5 h
Rattus norvegicus [18] = assay: Biodistribution values represent the mean % id/organ for paired rats 30 min post intravenous injection complex in Liver; type: ADME, organism-based; conditions: in vivo, 0.5 h
Rattus norvegicus [19] = assay: Biodistribution values represent the mean % id/organ for paired rats 30 min post intravenous injection complex in Lungs; type: ADME, organism-based, Lung; conditions: in vivo, 0.5 h
Rattus norvegicus [20] = assay: Biodistribution values represent the mean % id/organ for paired rats 30 min post intravenous injection complex in Muscles; type: ADME, organism-based, Muscle tissue; conditions: in vivo, 0.5 h

Row | Substance | Net accumulation (V79 [1]; Cricetulus griseus) | Verapamil index (V79 [2]; Cricetulus griseus) | Ratio [3] | Ratio [4] | Ratio [5] | also measured
1 | Hexakis[3,4-Dimethoxybenzeneisonitrile]technetium Complex | 397 | 3.52 | 26 | 0.7 | 7.3 | 
2 | Hexakis[3,5-Dimethoxy-alpha-tolueneisonitrile]technetium Complex | 315 | 2.19 | 28 | 0.4 | 3.1 | 
3 | Hexakis[2-(4-Methoxyphenyl)ethaneisonitrile]technetium Complex | 494 | 3.09 | 26 | 3.5 | 13 | 
4 | Hexakis[3-(hydroxymethyl)benzeneisonitrile]technetium Complex |  |  | 27 | 0.7 | 6.2 | Verapamil index (V79 [6]): 2.38; Net accumulation (V79 [7]): 257
5 | Hexakis[3-Nitrobenzeneisonitrile]technetium Complex |  |  | 31 | 0.4 | 0.6 | Verapamil index (V79 [6]): 0.99; Net accumulation (V79 [7]): 14
6 | Hexakis[2-(3,4-Dimethoxyphenyl)ethaneisonitrile]technetium Complex [listing 1 of 2 here] |  |  | 23 | 0.4 | 4.1 | Net accumulation (V79 [1]): 146; Verapamil index (V79 [2]): 3.3
7 | Hexakis[4-Nitrobenzeneisonitrile]technetium Complex | 29.1 | 1.15 | 39 | 0.3 | 0.6 | 
8 | Hexakis[2-Methoxy-5-nitrobenzeneisonitrile]technetium Complex |  |  | 38 | 0.5 | 0.9 | Verapamil index (V79 [6]): 0.96; Net accumulation (V79 [7]): 58.3
9 | Hexakis[3,4-(Methylenedioxy)benzeneisonitrile]technetium Complex | 93.9 | 1.87 | 9.3 | 0.4 | 14 | 
10 | Hexakis[3,4-Dimethoxy-alpha-tolueneisonitrile]technetium Complex | 362 | 1.53 | 19 | 0.6 | 7.9 | 
11 | Hexakis[4-Methoxy-alpha-tolueneisonitrile]technetium Complex | 359 | 2.6 | 30 | 0.3 | 2.5 | 
12 | Hexakis[2-(3,4,5-Trimethoxyphenyl)ethaneisonitrile]technetium Complex | 101 | 1.07 | 5 | 9 | 54 | 
13 | Hexakis[5-Methoxy-2-methyl-4-nitrobenzeneisonitrile]technetium Complex |  |  | 28 | 0.4 | 1.8 | Verapamil index (V79 [6]): 0.87; Net accumulation (V79 [7]): 31.7
14 | Hexakis[3,5-Dimethoxybenzeneisonitrile]technetium Complex | 15.3 | 1.84 | 7.5 | 1 | 1.7 | 
15 | Hexakis[4-Acetylbenzeneisonitrile]technetium Complex | 826 | 1.73 | 17 | 0.6 | 22 | 
16 | Hexakis[4-Cyanobenzeneisonitrile]technetium Complex | 161 | 1.61 | 31 | 0.3 | 1.2 | 
17 | Hexakis-(2-methoxyisobutylisonitrile)Technetium (99mTc-MIBI) | 102 | 32.9 | 0.7 | 120 | 158 | Verapamil index (V79 [6]): 3.91; Net accumulation (V79 [7]): 70.4
18 | Hexakis[3,4,5-Trimethoxy-alpha-tolueneisonitrile]technetium Complex | 57 | 0.81 | 6.7 | 5.5 | 24 | 
19 | Hexakis[2-(3,4-Dimethoxyphenyl)ethaneisonitrile]technetium Complex [listing 2 of 2 here] |  |  |  |  |  | ID/organ (Rattus norvegicus [8]): 1.91%; ID/organ (Rattus norvegicus [9]): 0.04%; ID/organ (Rattus norvegicus [10]): 3%; ID/organ (Rattus norvegicus [11]): 2.96%; ID/organ (Rattus norvegicus [12]): 0.02%; ID/organ (Rattus norvegicus [13]): 0.14%; ID/organ (Rattus norvegicus [14]): 15.7%; ID/organ (Rattus norvegicus [15]): 0.07%; ID/organ (Rattus norvegicus [16]): 1.26%; ID/organ (Rattus norvegicus [17]): 0.82%; ID/organ (Rattus norvegicus [18]): 77.5%; ID/organ (Rattus norvegicus [19]): 1.1%; ID/organ (Rattus norvegicus [20]): 1.77%
20 | Hexakis[3-Acetamidobenzeneisonitrile]technetium Complex | 147 | 0.77 | 15 | 0.7 | 8.8 | 
21 | Hexakis[3,4-(Methylenedioxy)-alpha-tolueneisonitrile]technetium Complex |  |  | 36 | 0.6 | 6.9 | Verapamil index (V79 [6]): 1.11; Net accumulation (V79 [7]): 287
